B1: YGL039w: Saccharomyces cerevisiae carbonyl reductase homolog, SEQ ID NO: 21, expressed in E. coli from pSE-YGD9 (protein, listed as Saccharomyces cerevisiae)
chain: MTTEKTVVFVSGATGFIALHVVDDLLKTGYKVIGSGRSQEKNDGLLKKFKSNPNLSMEIVEDIAAPNAFDKVFQKHGKEIKVVLHIASPVHFNTTDFEKDLLIPAVNGTKSILEAIKNYAADTVEKVVITSSVAALASPGDMKDTSFVVNEESWNKDTWESCQANAVSAYCGSKKFAEKTAWDFLEENQSSIKFTLSTINPGFVFGPQLFADSLRNGINSSSAIIANLVSYKLGDNFYNYSGPFIDVRDVSKAHLLAFEKPECAGQRLFLCEDMFCSQEALDILNEEFPQLKGKIATGEPGSGSTFLTKNCCKCDNRKTKNLLGFQFNKFRDCIVDTASQLLEVQSKS
B2: YDR541c: Saccharomyces cerevisiae carbonyl reductase homolog, SEQ ID NO: 25, expressed in E. coli from pSE-YDR1 (protein, listed as Saccharomyces cerevisiae)
chain: MSNTVLVSGASGFIALHILSQLLKQDYKVIGTVRSHEKEAKLLRQFQHNPNLTLEIVPDISHPNAFDKVLQKRGREIRYVLHTASPFHYDTTEYEKDLLIPALEGTKNILNSIKKYAADTVERVVVTSSCTAIITLAKMDDPSVVFTEESWNEATWESCQIDGINAYFASKKFAEKAAWEFTKENEDHIKFKLTTVNPSLLFGPQLFDEDVHGHLNTSCEMINGLIHTPVNASVPDFHSIFIDVRDVALAHLYAFQKENTAGKRLVVTNGKFGNQDILDILNEDFPQLRGLIPLGKPGTGDQVIDRGSTTDNSATRKILGFEFRSLHESVHDTAAQILKKENRL
B3: YGL157w: Saccharomyces cerevisiae carbonyl reductase homolog, SEQ ID NO: 17, expressed in E. coli from pSE-YGP7 (protein, listed as Saccharomyces cerevisiae)
chain: MTTDTTVFVSGATGFIALHIMNDLLKAGYTVIGSGRSQEKNDGLLKKFNNNPKLSMEIVEDIAAPNAFDEVFKKHGKEIKIVLHTASPFHFETTNFEKDLLTPAVNGTKSILEAIKKYAADTVEKVIVTSSTAALVTPTDMNKGDLVITEESWNKDTWDSCQANAVAAYCGSKKFAEKTAWEFLKENKSSVKFTLSTINPGFVFGPQMFADSLKHGINTSSGIVSELIHSKVGGEFYNYCGPFIDVRDVSKAHLVAIEKPECTGQRLVLSEGLFCCQEIVDILNEEFPQLKGKIATGEPATGPSFLEKNSCKFDNSKTKKLLGFQFYNLKDCIVDTAAQMLEVQNEA

System: carbonyl reductase
Assay: Substrate specificity: NADPH-dependent reduction by the carbonyl reductase obtained in Example 1
Format: biochemical, Torulaspora delbrueckii
Settings: substrate 1 mM, coenzyme NADPH; reduction of 3,4-dimethoxyphenylacetone regarded as 100
Description: (§1) A reaction solution comprising 50 mM potassium phosphate buffer (pH 6.5), 0.2 mM NADPH, 5 mM 3,4-dimethoxyphenylacetone, and an enzyme is reacted at 30° C. Any decrease in absorbance at 340 nm accompanying a decrease in NADPH is measured. 1U is defined as the amount of enzyme which catalyzes a 1 μmol decrease of NADPH in one minute.
(§2) The enzyme obtained in Example 1 was reacted with various ketones, ketoesters, and soon. The activities of the reduction reactions were expressed as relative activities, where the reduction of 3,4-dimethoxyphenylacetone was regarded as 100 (Table 2) (substrate specificity of carbonyl reductase). The activity of dehydrogenating 1-(3,4-dimethoxyphenyl)-2-propanol was measured as follows: A reaction was performed at 30° C. in a reaction solution comprising 50 mM Tris-HCl buffer (pH 8.5), 2.5 mM NADP^+, 5 mM 1-(3,4-dimethoxyphenyl)-2-propanol, and the enzyme. An increase in absorbance at 340 nm, accompanying NADPH production, was measured. 1 U was defined as the amount of enzyme catalyzing the production of 1 μmol NADPH per minute. In addition, the activity of reducing NADH-dependent 3,4-dimethoxyphenylacetone was measured as follows: A reaction was performed at 30° C. in a reaction solution comprising 50 mM potassium phosphate buffer (pH 6.5), 0.2 mM NADH, 5 mM 3,4-dimethoxyphenylacetone, and the enzyme, and decrease in absorbance at 340 nm, accompanying decrease in NADH, was measured. 1 U was defined as the amount of enzyme catalyzing a decrease of 1 μmol NADH per minute.

`CC12CCC(C(=O)C1=O)C2(C)C` (centres unmarked) [Camphorquinone] gave a Relative activity of 644%.

Same assay, conditions: substrate 2 mM, coenzyme NADPH; reduction of 3,4-dimethoxyphenylacetone regarded as 100

`O=C(CCl)c1cccc(Cl)c1` [2-Chloro-1-(3′-chlorophenyl)ethanone] gave a Relative activity of 922%.

Same assay, conditions: substrate 20 mM, coenzyme NADPH; reduction of 3,4-dimethoxyphenylacetone regarded as 100

Going from `CC(=O)COC(C)=O` [1-Acetoxy-2-propanone] to `CC(=O)CC(C)=O` [2,4-Pentanedione], the Relative activity falls from 24700% to 422%.

Going from `CC(=O)C(C)=O` [2,3-Butanedione] to `CCC(=O)C(C)=O` [2,3-Pentanedione], the Relative activity rises from 1480% to 2590%.

Compared with `CC(=O)OC(C)C(C)=O` (centres unmarked) [2-Acetoxy-3-butanone], `COC(=O)C(C)=O` [Methyl pyruvate] is higher in Relative activity: 589% for the first, 1320% for the second.

First: CC(=O)OC1CCCC1=O (centres unmarked) [2-Acetoxycyclopentanone]
Second: COC(=O)CC(C)=O [Methyl acetoacetate]
The Relative activity of the first is lower: 567% for the first, 3670% for the second.

Compared with `CCC(=O)c1ccc(OC)cc1` [4′-Methoxypropiophenone], `CC(=O)COc1ccccc1` [Phenoxy-2-propanone] is higher in Relative activity: 283% for the first, 939% for the second.

First: CC(=O)c1ccccc1 [Acetophenone]
Second: CC(=O)CCc1ccccc1 [Benzylacetone]
The Relative activity of the first is lower: 256% for the first, 739% for the second.

Going from `CCOC(=O)CC(=O)CCl` [Ethyl 4-chloroacetoacetate] to `COC(=O)CC(=O)CCl` [Methyl 4-chloroacetoacetate], the Relative activity rises from 6780% to 8040%.

Going from `CCOC(=O)CC(C)=O` [Ethyl acetoacetate] to `COCC(C)=O` [Methoxyacetone], the Relative activity falls from 3170% to 117%.

System: not listed separately
Assay: Enzymatic synthesis of (S)-1-(3,4-dimethoxyphenyl)-2-propanol: optical purity and reaction yield
Format: biochemical
Settings: 0.2 U homolog enzyme, 50 mM 3,4-dimethoxyphenylacetone, overnight, 25° C., pH 6.5
Description: A reaction was performed overnight at 25° C. in 1 mL of a reaction solution comprising 200 mM potassium phosphate buffer (pH 6.5), 1 mM NADP^+, 2 U glucose dehydroganase (Wako Pure Chemical Industries, Ltd.), 250 mM glucose, 0.25 U carbonyl reductase, and 50 mM 3,4-dimethoxyphenylacetone. The optical purity of the produced (S)-1-(3,4-dimethoxyphenyl)-2-propanol was measured as follows: One mL of ethyl acetate was added to 0.5 mL of the reaction solution to extract (S)-1-(3,4-dimethoxyphenyl)-2-propanol, and the extraction solvent was desolvated. 0.5 mL of a dissolving solution (n-hexane: isopropanol=4:1) was then added to dissolve the extract, which was then analyzed by liquid chromatography using an optical resolution column. CHIRALCEL OF (4.6 mm×25 cm; Daicel Chemical Industries, Ltd.) was used as the optical resolution column. Chromatography was performed with a wavelength of 220 nm, a flow rate of 1.0 mL/min, and at 40° C. using an eluting solution of n-hexane: isopropanol=4:1.
In addition, the (S)-1-(3,4-dimethoxyphenyl)-2-propanol thus-produced was quantified using gas chromatography, and a yield relative to the raw starting material, 3,4-dimethoxyphenylacetone, was obtained. Specifically, the analysis was performed at a column temperature of 210° C., using Thermon 3000 (10%)-Chromosorb W (AW-DMCS, Mesh 60–80; 3.2 mm×210 cm) with a hydrogen flame ionization detector (FID). The resulting reaction yield was about 95%.
To prepare crude enzyme solution for enzyme reaction, the crude enzyme solution prepared in Example 18 was concentrated ten-folds using a UF membrane. This solution was reacted overnight at 25° C. in 1 mL of a reaction solution comprising 200 mM potassium phosphate buffer (pH 6.5), 1 mM NADP^+, 2 U glucose dehydrogenase (Wako Pure Chemical Industries, Ltd.), 250 mM glucose, 0.2 U homolog enzyme, and 50 mM 3,4-dimethoxyphenylacetone. Optical purity was measured and the produced (S)-1-(3,4-dimethoxyphenyl)-2-propanol was quantified as in Example 6. As a result, YGL157w (pSE-YGP7) produced 93.7% ee (S)-1-(3,4-dimethoxyphenyl)-2-propanol at a yield of 66%, YGL039w (pSE-YGD9) produced 93.6% ee at a yield of 94%, and YDR541c (pSE-YDR1) produced 94.8% ee at a yield of 6%.

First: B1
Second: B2
The “Optical purity of the produced (S)-1-(3,4-dimethoxyphenyl)-2-propanol” value of the first is lower: 93.6 % ee for the first, 94.8 % ee for the second.

With B3 the “Optical purity of the produced (S)-1-(3,4-dimethoxyphenyl)-2-propanol” value was 93.7 % ee.

Compared with B1, B2 is lower in “Yield of (S)-1-(3,4-dimethoxyphenyl)-2-propanol” value: 94% for the first, 6% for the second.

With B3 the “Yield of (S)-1-(3,4-dimethoxyphenyl)-2-propanol” value was 66%.

System: carbonyl reductase
Assay: Activity of dehydrogenating 1-(3,4-dimethoxyphenyl)-2-propanol with NADP+
Format: biochemical, Torulaspora delbrueckii
Settings: substrate 5 mM, coenzyme NADP+, dehydrogenation, pH 8.5, 30° C.
Description: as §2

`COc1ccc(C[C@@H](C)O)cc1OC` [(R)-1-(3,4-dimethoxyphenyl)-2-propanol] and `COc1ccc(C[C@H](C)O)cc1OC` [(S)-1-(3,4-dimethoxyphenyl)-2-propanol] are the same in Relative activity: 0.0% for the first, 0.0% for the second.

System: not listed separately
Assay: 3,4-dimethoxyphenylacetone-reducing activity of cell-free extracts of transformed Escherichia coli
Format: biochemical, Escherichia coli JM109
Settings: cell-free extracts of E. coli expressing the homolog
Description: as §1
Escherichia coli JM109 strain transformed with plasmid pSE-TDR1, which expresses carbonyl reductase, and plasmid pSG-TDR1, which coexpresses carbonyl reductase and Bacillus subtilis-derived glucose dehydrogenase, was cultured overnight at 30° C. in liquid LB medium containing ampicillin. 0.1 mM IPTG was added, and the strain was further cultured for four hours.
Cells were collected by centrifugation, and then suspended in 50 mM potassium phosphate buffer (pH 6.5) comprising 0.5 M NaCl, 0.02% 2-mercaptoethanol, 2 mM PMSF, and 10% glycerin. Cells were then disrupted by sonication, and centrifuged. The obtained supernatant was used as a cell-free extract. The 3,4-dimethoxyphenylacetone-reducing activity and glucose-dehydrogenating activity of the cell-free extract were measured. The glucose-dehydrogenating activity was measured as follows: Measurements were performed at 30° C. in a reaction solution comprising the enzyme and 100 mM potassium phosphate buffer (pH 6.5), 2.5 mM NAD^+, 100 mM glucose. 1 U was defined as the amount of enzyme to catalyze production of […] of NADH per minute under the aforementioned reaction conditions.
Escherichia coli JM109+strains comprising pSE-YGP7, pSE-YGD9, pSE-YDR1, pSG-YGP7, pSG-YGD9, or pSG-YDR1 were cultured on LB medium comprising ampicillin, induced with 0.1 mM IPTG for four hours, and then centrifuged to collect the cells.
Each of these cell samples was suspended in a cell lysis solution (50 mM KPB pH 8.0, 1 mM EDTA, 0.02% 2-mercaptoethanol, 2 mM PMSF, 10% Glycerol). The cells were ruptured by sonication and then centrifuged to obtain the supernatant, which was used as a cell-free extract.

With B1 the “3,4-dimethoxyphenylacetone reductase activity (in words)” value was “confirmed to comprise 3,4-dimethoxyphenylacetone reductase activity”.
In the case of B2, the “3,4-dimethoxyphenylacetone reductase activity (in words)” value is reported as “confirmed to comprise 3,4-dimethoxyphenylacetone reductase activity”.
With B3 the “3,4-dimethoxyphenylacetone reductase activity (in words)” value was “confirmed to comprise 3,4-dimethoxyphenylacetone reductase activity”.

— patent US7083962B2, “Carbonyl reductases, polynucleotides comprising DNA encoding the same, methods for producing the same, and methods for producing optically active alcohol utilizing the same” (Daicel Chemical Industries Ltd., priority 2004, dated 2006)
